# From paper PMC7267738 (iScience, 2020)
# Key:
# [1] = molecular target: purified recombinant c-Met kinase domains (Homo sapiens, UniProt P08581); assay: Biochemical kinase assay
# c-Met = c-Met (Homo sapiens, UniProt P08581); type: cell-based
# Chain of c-Met (P08581 25-1390): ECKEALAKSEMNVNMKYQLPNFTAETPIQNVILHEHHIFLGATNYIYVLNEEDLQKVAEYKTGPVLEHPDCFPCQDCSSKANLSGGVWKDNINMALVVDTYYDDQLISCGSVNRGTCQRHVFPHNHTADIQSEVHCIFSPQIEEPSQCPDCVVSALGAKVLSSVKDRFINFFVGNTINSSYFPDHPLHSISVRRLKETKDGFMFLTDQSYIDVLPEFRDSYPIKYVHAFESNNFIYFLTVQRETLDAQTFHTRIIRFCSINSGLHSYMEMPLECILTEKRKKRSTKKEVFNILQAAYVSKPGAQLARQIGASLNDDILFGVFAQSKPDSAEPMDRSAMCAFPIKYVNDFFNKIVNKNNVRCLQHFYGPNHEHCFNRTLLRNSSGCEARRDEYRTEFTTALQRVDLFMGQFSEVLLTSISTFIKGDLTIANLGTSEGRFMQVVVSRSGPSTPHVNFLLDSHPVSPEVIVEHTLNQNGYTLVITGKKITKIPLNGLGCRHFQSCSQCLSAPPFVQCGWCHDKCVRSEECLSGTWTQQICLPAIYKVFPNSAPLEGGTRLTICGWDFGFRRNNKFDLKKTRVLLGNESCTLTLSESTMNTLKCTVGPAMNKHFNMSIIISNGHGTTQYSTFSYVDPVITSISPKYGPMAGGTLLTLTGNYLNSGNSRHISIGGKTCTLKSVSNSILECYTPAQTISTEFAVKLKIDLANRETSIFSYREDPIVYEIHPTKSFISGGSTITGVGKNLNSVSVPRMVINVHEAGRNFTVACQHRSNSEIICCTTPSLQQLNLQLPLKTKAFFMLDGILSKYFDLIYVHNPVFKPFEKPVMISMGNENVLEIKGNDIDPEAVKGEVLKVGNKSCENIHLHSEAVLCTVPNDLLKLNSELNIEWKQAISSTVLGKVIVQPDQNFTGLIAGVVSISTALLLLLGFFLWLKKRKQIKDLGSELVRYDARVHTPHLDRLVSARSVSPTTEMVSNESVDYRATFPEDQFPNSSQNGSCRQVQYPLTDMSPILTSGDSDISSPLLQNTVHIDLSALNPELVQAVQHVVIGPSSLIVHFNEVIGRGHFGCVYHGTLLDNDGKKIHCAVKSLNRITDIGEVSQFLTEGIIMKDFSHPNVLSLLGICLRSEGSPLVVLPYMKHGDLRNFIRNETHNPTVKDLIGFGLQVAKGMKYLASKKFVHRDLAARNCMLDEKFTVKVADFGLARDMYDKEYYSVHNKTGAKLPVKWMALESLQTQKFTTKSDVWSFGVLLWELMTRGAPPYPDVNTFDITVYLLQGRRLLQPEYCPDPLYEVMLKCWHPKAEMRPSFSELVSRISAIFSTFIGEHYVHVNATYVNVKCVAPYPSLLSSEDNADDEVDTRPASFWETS
# Chain of purified recombinant c-Met kinase domains (P08581 1078-1345 limits assumed): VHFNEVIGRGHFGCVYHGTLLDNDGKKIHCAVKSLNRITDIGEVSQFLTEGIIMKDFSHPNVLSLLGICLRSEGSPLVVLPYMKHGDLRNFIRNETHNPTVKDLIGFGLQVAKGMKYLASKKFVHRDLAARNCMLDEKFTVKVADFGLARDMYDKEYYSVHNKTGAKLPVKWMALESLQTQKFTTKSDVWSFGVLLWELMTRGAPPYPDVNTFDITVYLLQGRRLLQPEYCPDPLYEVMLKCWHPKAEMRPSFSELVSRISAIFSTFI
structure (smiles),measurement,setting,value
COc1cc2ncnc(Oc3ccc(Nc4nccc5[nH]cc(-c6ccc(C(F)(F)F)cc6)c(=O)c45)cc3F)c2cc1OC [Compound 5d],IC50,[1],40.3 nM
same,IC50,c-Met,25 µM
